Reference: patent publication US11649255B2, “Indazoles as hematopoietic progenitor kinase 1 (HPK1) inhibitors and methods using same” (1st Biotherapeutics, Inc., priority 2020, dated 2023)

These compounds were tested against recombinant human HPK1 (Homo sapiens (Human), UniProt Q92918) (assay: HPK1 kinase assay (ADP-Glo)). Conditions: 25 μM ATP, MBP substrate.
Type: biochemical
Outline: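 Activity was read as ADP formed, detected by ADP-Glo luminescence after the reaction of 5 ng recombinant human HPK1 with MBP and ATP (stocks 0.5 μg/μl and 25 μM) for 40 min at 30 °C. Buffer was Tris pH 7.5 with MgCl2, BSA and DTT, with compound in 0.5% DMSO. IC50 came from inhibition curves.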

Chain of recombinant human HPK1 (Q92918 whole entry): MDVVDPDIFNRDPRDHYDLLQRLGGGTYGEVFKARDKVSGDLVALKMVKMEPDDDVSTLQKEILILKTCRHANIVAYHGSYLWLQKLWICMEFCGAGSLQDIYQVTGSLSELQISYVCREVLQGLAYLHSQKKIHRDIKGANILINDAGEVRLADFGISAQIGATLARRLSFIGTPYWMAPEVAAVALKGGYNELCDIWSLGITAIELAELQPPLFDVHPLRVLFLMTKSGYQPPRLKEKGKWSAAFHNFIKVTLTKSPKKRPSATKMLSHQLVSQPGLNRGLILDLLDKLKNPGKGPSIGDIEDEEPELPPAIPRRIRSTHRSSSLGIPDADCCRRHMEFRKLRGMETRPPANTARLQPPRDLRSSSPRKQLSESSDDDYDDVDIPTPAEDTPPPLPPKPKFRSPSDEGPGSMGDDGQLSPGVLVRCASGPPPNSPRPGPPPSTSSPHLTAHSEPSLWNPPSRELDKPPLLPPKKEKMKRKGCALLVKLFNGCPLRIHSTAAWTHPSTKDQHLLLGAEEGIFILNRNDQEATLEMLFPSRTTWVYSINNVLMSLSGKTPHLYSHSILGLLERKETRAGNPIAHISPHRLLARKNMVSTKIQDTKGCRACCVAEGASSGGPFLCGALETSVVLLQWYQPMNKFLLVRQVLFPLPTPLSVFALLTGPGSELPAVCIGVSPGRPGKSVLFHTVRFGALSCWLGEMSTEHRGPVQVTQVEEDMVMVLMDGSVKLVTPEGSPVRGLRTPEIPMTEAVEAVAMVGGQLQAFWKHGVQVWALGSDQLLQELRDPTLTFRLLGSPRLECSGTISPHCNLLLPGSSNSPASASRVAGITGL

| IC50 | Compound |
| --- | --- |
| 101 to 500 nM | Cc1ccc2[nH]ncc2c1-c1ccc2nc(NC(=O)[C@@H]3C[C@@H]3F)sc2n1 [Example 146, (1S,2S)-2-fluoro-N-(5-(5-methyl-1H-indazol-4-yl)thiazolo[5,4-b]pyridin-2-yl)cyclopropane-1-carboxamide] |
| < 100 nM | Cc1c(F)cc2[nH]ncc2c1-c1ccc2nc(NC(=O)[C@@H]3C[C@@H]3F)sc2n1 [Example 147, (1S,2S)-2-fluoro-N-(5-(6-fluoro-5-methyl-1H-indazol-4-yl)thiazolo[5,4-b]pyridin-2-yl)cyclopropane-1-carboxamide] |
| > 1000 nM | CSc1n[nH]c2cc(F)c(C)c(-c3ccc4nc(NC(=O)[C@@H]5C[C@@H]5F)sc4n3)c12 [Example 148, (1S,2S)-2-fluoro-N-(5-(6-fluoro-5-methyl-3-(methylthio)-1H-indazol-4-yl)thiazolo[5,4-b]pyridin-2-yl)cyclopropane-1-carboxamide] |
| < 100 nM | CC(C)c1c(F)cc2[nH]ncc2c1-c1ccc2nc(NC(=O)[C@@H]3C[C@@H]3F)sc2n1 [Example 150, (1S,2S)-2-fluoro-N-(5-(6-fluoro-5-isopropyl-1H-indazol-4-yl)thiazolo[5,4-b]pyridin-2-yl)cyclopropane-1-carboxamide] |
| > 1000 nM | Nc1c(F)cc2[nH]ncc2c1-c1ccc2nc(NC(=O)[C@@H]3C[C@@H]3F)sc2n1 [Example 151, (1S,2S)-N-(5-(5-amino-6-fluoro-1H-indazol-4-yl)thiazolo[5,4-b]pyridin-2-yl)-2-fluorocyclopropane-1-carboxamide] |
| < 100 nM | O=C(Nc1nc2ccc(-c3c(Cl)c(F)cc4[nH]ncc34)nc2s1)[C@@H]1C[C@@H]1F [Example 153, (1S,2S)-N-(5-(5-chloro-6-fluoro-1H-indazol-4-yl)thiazolo[5,4-b]pyridin-2-yl)-2-fluorocyclopropane-1-carboxamide] |
| < 100 nM | COc1c(F)cc2[nH]ncc2c1-c1ccc2nc(NC(=O)[C@@H]3C[C@@H]3F)sc2n1 [Example 155, (1S,2S)-2-fluoro-N-(5-(6-fluoro-5-methoxy-1H-indazol-4-yl)thiazolo[5,4-b]pyridin-2-yl)cyclopropane-1-carboxamide] |
| 101 to 500 nM | N#Cc1c(F)cc2[nH]ncc2c1-c1ccc2nc(NC(=O)[C@@H]3C[C@@H]3F)sc2n1 [Example 157, (1S,2S)-N-(5-(5-cyano-6-fluoro-1H-indazol-4-yl)thiazolo[5,4-b]pyridin-2-yl)-2-fluorocyclopropane-1-carboxamide] |
| 101 to 500 nM | O=C(Nc1nc2ccc(-c3c(C4CC4)c(F)cc4[nH]ncc34)nc2s1)[C@@H]1C[C@@H]1F [Example 158, (1S,2S)-N-(5-(5-cyclopropyl-6-fluoro-1H-indazol-4-yl)thiazolo[5,4-b]pyridin-2-yl)-2-fluorocyclopropane-1-carboxamide] |
| < 100 nM | CCNc1c(F)c(Cl)c(-c2ccc3nc(NC(=O)[C@@H]4C[C@@H]4F)sc3n2)c2cn[nH]c12 [Example 159, (1S,2S)-N-(5-(5-chloro-7-(ethylamino)-6-fluoro-1H-indazol-4-yl)thiazolo[5,4-b]pyridin-2-yl)-2-fluorocyclopropane-1-carboxamide] |
| < 100 nM | O=C(Nc1nc2ccc(-c3c(Br)c(F)cc4[nH]ncc34)nc2s1)[C@@H]1C[C@@H]1F [Example 160, (1S,2S)-N-(5-(5-bromo-6-fluoro-1H-indazol-4-yl)thiazolo[5,4-b]pyridin-2-yl)-2-fluorocyclopropane-1-carboxamide] |
| > 1000 nM | C[S+]([O-])c1c(F)cc2[nH]ncc2c1-c1ccc2nc(NC(=O)[C@@H]3C[C@@H]3F)sc2n1 (stereo partly drawn) [Example 164, (1S,2S)-2-fluoro-N-(5-(6-fluoro-5-(methylsulfinyl)-1H-indazol-4-yl)thiazolo[5,4-b]pyridin-2-yl)cyclopropane-1-carboxamide] |

Continued, compound first:

| Compound | IC50 |
| --- | --- |
| CN(C)c1c(F)c(C(F)(F)F)c(-c2ccc3nc(NC(=O)[C@@H]4C[C@@H]4F)sc3c2)c2cn[nH]c12 [Example 130, (1S,2S)-N-(6-(7-(dimethylamino)-6-fluoro-5-(trifluoromethyl)-1H-indazol-4-yl)benzo[d]thiazol-2-yl)-2-fluorocyclopropane-1-carboxamide] | < 100 nM |
| CC(=O)c1c(F)c(C)c(-c2ccc3nc(NC(=O)[C@@H]4C[C@@H]4F)sc3c2)c2cn[nH]c12 [Example 131, (1S,2S)-N-(6-(7-acetyl-6-fluoro-5-methyl-1H-indazol-4-yl)benzo[d]thiazol-2-yl)-2-fluorocyclopropane-1-carboxamide] | 101 to 500 nM |
| CNC(=O)c1c(F)c(C)c(-c2ccc3nc(NC(=O)[C@@H]4C[C@@H]4F)sc3c2)c2cn[nH]c12 [Example 132, 6-fluoro-4-(2-((1S,2S)-2-fluorocyclopropane-1-carboxamido)benzo[d]thiazol-6-yl)-N,5-dimethyl-1H-indazole-7-carboxamide] | 101 to 500 nM |
| CCN(C)c1c(F)c(Cl)c(-c2ccc3nc(NC(=O)[C@@H]4C[C@@H]4F)sc3c2)c2cn[nH]c12 [Example 133, (1S,2S)-N-(6-(5-chloro-7-(ethyl(methyl)amino)-6-fluoro-1H-indazol-4-yl)benzo[d]thiazol-2-yl)-2-fluorocyclopropane-1-carboxamide] | < 100 nM |
| NC(=O)c1c(F)c(Cl)c(-c2ccc3nc(NC(=O)[C@@H]4C[C@@H]4F)sc3c2)c2cn[nH]c12 [Example 135, 5-chloro-6-fluoro-4-(2-((1S,2S)-2-fluorocyclopropane-1-carboxamido)benzo[d]thiazol-6-yl)-1H-indazole-7-carboxamide] | > 1000 nM |
| CCc1c(F)c(N(C)CC)c2[nH]ncc2c1-c1ccc2nc(NC(=O)[C@@H]3C[C@@H]3F)sc2c1 [Example 136, (1S,2S)-N-(6-(5-ethyl-7-(ethyl(methyl)amino)-6-fluoro-1H-indazol-4-yl)benzo[d]thiazol-2-yl)-2-fluorocyclopropane-1-carboxamide] | < 100 nM |
| CCN(C)c1c(F)c(SC)c(-c2ccc3nc(NC(=O)[C@@H]4C[C@@H]4F)sc3c2)c2cn[nH]c12 [Example 138, (1S,2S)-N-(6-(7-(ethyl(methyl)amino)-6-fluoro-5-(methylthio)-1H-indazol-4-yl)benzo[d]thiazol-2-yl)-2-fluorocyclopropane-1-carboxamide] | < 100 nM |
| CN(C)c1c(F)cc(-c2ccc3nc(NC(=O)[C@@H]4C[C@@H]4F)sc3c2)c2cn[nH]c12 [Example 139, (1S,2S)-N-(6-(7-(dimethylamino)-6-fluoro-1H-indazol-4-yl)benzo[d]thiazol-2-yl)-2-fluorocyclopropane-1-carboxamide] | < 100 nM |
| O=C(Nc1nc2ccc(-c3cc(F)c(OC(F)(F)F)c4[nH]ncc34)cc2s1)[C@@H]1C[C@@H]1F [Example 140, (1S,2S)-2-fluoro-N-(6-(6-fluoro-7-(trifluoromethoxy)-1H-indazol-4-yl)benzo[d]thiazol-2-yl)cyclopropane-1-carboxamide] | > 1000 nM |
| CSc1c(F)cc(-c2ccc3nc(NC(=O)[C@@H]4C[C@@H]4F)sc3c2)c2cn[nH]c12 [Example 141, (1S,2S)-2-fluoro-N-(6-(6-fluoro-7-(methylthio)-1H-indazol-4-yl)benzo[d]thiazol-2-yl)cyclopropane-1-carboxamide] | > 1000 nM |
| CSc1ccc(-c2ccc3nc(NC(=O)[C@@H]4C[C@@H]4F)sc3c2)c2cn[nH]c12 [Example 142, (1S,2S)-2-fluoro-N-(6-(7-(methylthio)-1H-indazol-4-yl)benzo[d]thiazol-2-yl)cyclopropane-1-carboxamide] | > 1000 nM |
| CN(C)C(=O)c1c(F)cc(-c2ccc3nc(NC(=O)[C@@H]4C[C@@H]4F)sc3c2)c2cn[nH]c12 [Example 144, 6-fluoro-4-(2-((1S,2S)-2-fluorocyclopropane-1-carboxamido)benzo[d]thiazol-6-yl)-N,N-dimethyl-1H-indazole-7-carboxamide] | 101 to 500 nM |
| CN(C)C(=O)c1c(F)cc2[nH]ncc2c1-c1ccc2nc(NC(=O)[C@@H]3C[C@@H]3F)sc2c1 [Example 145, 6-fluoro-4-(2-((1S,2S)-2-fluorocyclopropane-1-carboxamido)benzo[d]thiazol-6-yl)-N,N-dimethyl-1H-indazole-5-carboxamide] | > 1000 nM |
| CCOc1c(F)c(Cl)c(-c2ccc3nc(NC(=O)[C@@H]4C[C@@H]4F)sc3n2)c2cn[nH]c12 [Example 149, (1S,2S)—N-(5-(5-chloro-7-ethoxy-6-fluoro-1H-indazol-4-yl)thiazolo[5,4-b]pyridin-2-yl)-2-fluorocyclopropane-1-carboxamide] | < 100 nM |
| CCN(CC)c1c(F)c(Cl)c(-c2ccc3nc(NC(=O)[C@@H]4C[C@@H]4F)sc3n2)c2cn[nH]c12 [Example 154, (1S,2S)-N-(5-(5-chloro-7-(diethylamino)-6-fluoro-1H-indazol-4-yl)thiazolo[5,4-b]pyridin-2-yl)-2-fluorocyclopropane-1-carboxamide] | < 100 nM |
| Cc1c(F)c(SCCO)c2[nH]ncc2c1-c1ccc2nc(NC(=O)[C@@H]3C[C@@H]3F)sc2n1 [Example 163, (1S,2S)-2-fluoro-N-(5-(6-fluoro-7-((2-hydroxyethyl)thio)-5-methyl-1H-indazol-4-yl)thiazolo[5,4-b]pyridin-2-yl)cyclopropane-1-carboxamide] | < 100 nM |
| CCOC(=O)CSc1c(F)c(CC)c(-c2ccc3nc(NC(=O)[C@@H]4C[C@@H]4F)sc3n2)c2cn[nH]c12 [Example 165, ethyl 2-((5-ethyl-6-fluoro-4-(2-((1S,2S)-2-fluorocyclopropane-1-carboxamido)thiazolo[5,4-b]pyridin-5-yl)-1H-indazol-7-yl)thio)acetate] | < 100 nM |
| CCc1c(F)c(SCC(=O)N(C)C)c2[nH]ncc2c1-c1ccc2nc(NC(=O)[C@@H]3C[C@@H]3F)sc2n1 [Example 166, (1S,2S)-N-(5-(7-((2-(dimethylamino)-2-oxoethyl)thio)-5-ethyl-6-fluoro-1H-indazol-4-yl)thiazolo[5,4-b]pyridin-2-yl)-2-fluorocyclopropane-1-carboxamide] | < 100 nM |
